{
  "source": "patent US9669063B2",
  "about": "“Composition for prevention, amelioration or treatment of metabolic syndrome” (MORISHITA JINTAN CO., LTD., priority 2012, dated 2017)",
  "system": "diet-induced obese mice",
  "assay": "Test Example 2: diet-induced obese mice on low-calorie feed with RHP, caffeine or their mixture, body weight, calorie intake, epididymal fat",
  "format": "in vivo, KK mice",
  "procedure": "Mice were fed with a high-calorie feed for the preparation of diet-induced obese mice. The calorie intake of the diet-induced obese mice was restricted so as to induce a state of facilitated resolution and utilization of body fat, and then the composition of the present invention containing a rose hip extract and caffeine was given to the mice. In this way, examination was conducted to determine whether the composition could facilitate the resolution and utilization of body fat and thereby ameliorate obesity. Five-week-old male KK mice were fed with water and the powder feed for breeding for three days, and then fed with the high-calorie feed for 3 weeks for the preparation of diet-induced obese mice. The diet-induced obese mice were divided into three groups (six mice per group) and fed with the feed (1) to (3) shown below for 2 weeks. The feeds given to the test groups are as follows. […] After the end of the test, the mice were euthanized, and epididymal fat tissue was harvested and weighed. […] The results are shown as the mean±SD of each group. Diet-induced obese mice were divided into four groups (six mice per group) and fed with the feed (4) to (7) shown below. Other test conditions were the same as in Test Example 1. The results in Table 3 were statistically analyzed by Dunnett's multiple comparison test. The symbol ** indicates a significant difference with a risk less than 1% from the control group.",
  "data": [
    {"smiles": "Cn1c(=O)c2c(ncn2C)n(C)c1=O", "note": "[caffeine]", "values": [
      {"measurement": "reduction in weight of epididymal fat tissue as compared with the control group", "setting": "0.025 mass % caffeine in low-calorie feed", "value": 9.2, "unit": "%"},
      {"measurement": "statistical significance of fat-reducing effect vs control", "setting": "0.025 mass % caffeine in low-calorie feed, Dunnett's test", "value": "none of them showed any statistically significant fat-reducing effect"},
      {"measurement": "Body weight", "setting": "low-calorie feed + 0.025 mass % caffeine, 2 weeks, last day of test, mean±SD", "value": "35.2 ± 1.8", "unit": "g"},
      {"measurement": "Epididymal fat weight", "setting": "low-calorie feed + 0.025 mass % caffeine, 2 weeks, mean±SD", "value": "1.60 ± 0.19", "unit": "g/100 g body weight"}
    ]}
  ]
}
